In patent publication US10172868B2, “Substituted quinazolines for inhibiting kinase activity” (NeuPharma, Inc., priority 2013, dated 2019):

Legend:
JAK3 = JAK3 (Homo sapiens (Human), UniProt P52333); assay: Z'-LYTE kinase inhibition assay, JAK3; assay type: biochemical; conditions: read-out: IC50 against JAK3
Protocol: (§1) Inhibitory activities of compounds against BTK, EGFR and EGFR mutants (EGFR L858R, EGFR T790M, EGFR L858R/T790M), FGFR1, FGFR2, JAK2, JAK3 and KDR were measured by Invitrogen using Z'-LYTE® Method as briefly described in the following.
(§2) Test Compounds are screened in 1% DMSO (final) in the well. For 10 point titrations, 3-fold serial dilutions are conducted from the starting concentration. All ATP Solutions are diluted to a 4× working concentration in Kinase Buffer (50 mM HEPES pH 7.5, 0.01% BRIJ-35, 10 mM MgCl2, 1 mM EGTA). Peptide/Kinase Mixtures are diluted to a 2× working concentration in the appropriate Kinase Buffers as described below.
(v) Peptide/Kinase Mixtures for Measurement of JAK3:
The 2×JAK3/Tyr 06 mixture is prepared in 50 mM HEPES pH 7.5, 0.01% BRIJ-35, 10 mM MgCl2, 1 mM EGTA. The final 10 μL Kinase Reaction consists of 0.29-1.34 ng JAK3 and 2 μM Tyr 06 in 50 mM HEPES pH 7.5, 0.010/% BRIJ-35, 10 mM MgCl2, 1 mM EGTA. After the 1 hour Kinase Reaction incubation, 5 μL of a 1:64 dilution of Development Reagent A is added.
Reaction starts by 30-second shaking of mixture consisting of 2.5 μL 4× test compound, […] 2× kinase reaction mixture and 2.5 μL 4×ATP Solution on Bar-coded Corning, low volume NBS, black 384-well plate (Corning Cat. #3676). Then the mixture is incubated for 60-minute at room temperature for the kinase reaction, followed by addition of 5 μL of a 1:1024 dilution of development reagent A and 30-second plate shake. The mixture is then incubated for another 60-minute at room temperature for development reaction. Finally fluorescence is read by plate reader.
To determine IC50 of a compound against EGFR, EGFR mutant and other kinases, a series of concentrations of the compound were tested for the inhibition. […] The scale utilized in Table 4 is as follows: +++ less than 100 nM, ++ 100-500 nM and + greater than 500 nM.

FGFR2 = FGFR2 (Homo sapiens (Human), UniProt P21802); assay: Z'-LYTE kinase inhibition assay, FGFR2; assay type: biochemical; conditions: read-out: IC50 against FGFR2
Protocol: as §1, §2
(v) Peptide/Kinase Mixtures for Measurement of FGFR2:
The 2×FGFR2/Tyr 04 mixture is prepared in 50 mM HEPES pH 7.5, 0.01% BRIJ-35, 10 mM MgCl2, 4 mM MnCl2, 1 mM EGTA, 2 mM DTT. The final 10 μL Kinase Reaction consists of 0.19-2.36 ng FGFR2 and 2 μM Tyr 04 in 50 mM HEPES pH 7.5, 0.01% BRIJ-35, 10 mM MgCl2, 2 mM MnCl2, 1 mM EGTA, 1 mM DTT. After the 1 hour Kinase Reaction incubation, 5 μL of a 1:64 dilution of Development Reagent B is added.
Reaction starts by 30-second shaking of mixture consisting of 2.5 μL 4× test compound, […] 2× kinase reaction mixture and 2.5 μL 4×ATP Solution on Bar-coded Corning, low volume NBS, black 384-well plate (Corning Cat. #3676). […] Finally fluorescence is read by plate reader. […]

Sequence of JAK3 (P52333 whole entry): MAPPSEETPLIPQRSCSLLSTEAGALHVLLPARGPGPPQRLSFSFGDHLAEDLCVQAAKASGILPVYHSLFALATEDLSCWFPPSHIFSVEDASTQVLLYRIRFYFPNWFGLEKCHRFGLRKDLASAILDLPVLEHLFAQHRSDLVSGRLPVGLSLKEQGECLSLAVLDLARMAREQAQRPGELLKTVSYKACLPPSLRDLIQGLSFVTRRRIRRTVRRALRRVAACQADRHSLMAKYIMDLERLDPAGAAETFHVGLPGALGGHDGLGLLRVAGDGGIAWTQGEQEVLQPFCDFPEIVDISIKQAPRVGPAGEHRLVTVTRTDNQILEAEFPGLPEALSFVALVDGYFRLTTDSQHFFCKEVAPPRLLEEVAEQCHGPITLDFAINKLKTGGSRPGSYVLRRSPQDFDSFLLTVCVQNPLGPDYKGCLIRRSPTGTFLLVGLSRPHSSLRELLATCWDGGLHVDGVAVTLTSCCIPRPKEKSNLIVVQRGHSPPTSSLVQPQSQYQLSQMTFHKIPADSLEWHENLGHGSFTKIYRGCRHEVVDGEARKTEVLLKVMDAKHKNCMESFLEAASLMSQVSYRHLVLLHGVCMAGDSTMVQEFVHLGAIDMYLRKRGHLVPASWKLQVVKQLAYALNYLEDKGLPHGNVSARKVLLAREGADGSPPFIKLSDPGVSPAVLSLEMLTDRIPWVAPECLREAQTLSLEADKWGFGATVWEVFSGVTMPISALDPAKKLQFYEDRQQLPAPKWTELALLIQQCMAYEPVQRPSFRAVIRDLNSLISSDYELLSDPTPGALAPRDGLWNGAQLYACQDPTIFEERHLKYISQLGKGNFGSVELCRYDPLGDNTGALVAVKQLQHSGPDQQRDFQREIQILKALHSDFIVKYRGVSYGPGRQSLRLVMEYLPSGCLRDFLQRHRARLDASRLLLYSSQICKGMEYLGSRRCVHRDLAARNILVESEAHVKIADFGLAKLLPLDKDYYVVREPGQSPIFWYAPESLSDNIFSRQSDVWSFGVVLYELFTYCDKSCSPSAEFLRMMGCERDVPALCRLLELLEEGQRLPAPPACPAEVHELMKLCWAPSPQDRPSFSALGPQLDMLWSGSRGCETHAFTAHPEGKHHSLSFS
Sequence of FGFR2 (P21802 22-821): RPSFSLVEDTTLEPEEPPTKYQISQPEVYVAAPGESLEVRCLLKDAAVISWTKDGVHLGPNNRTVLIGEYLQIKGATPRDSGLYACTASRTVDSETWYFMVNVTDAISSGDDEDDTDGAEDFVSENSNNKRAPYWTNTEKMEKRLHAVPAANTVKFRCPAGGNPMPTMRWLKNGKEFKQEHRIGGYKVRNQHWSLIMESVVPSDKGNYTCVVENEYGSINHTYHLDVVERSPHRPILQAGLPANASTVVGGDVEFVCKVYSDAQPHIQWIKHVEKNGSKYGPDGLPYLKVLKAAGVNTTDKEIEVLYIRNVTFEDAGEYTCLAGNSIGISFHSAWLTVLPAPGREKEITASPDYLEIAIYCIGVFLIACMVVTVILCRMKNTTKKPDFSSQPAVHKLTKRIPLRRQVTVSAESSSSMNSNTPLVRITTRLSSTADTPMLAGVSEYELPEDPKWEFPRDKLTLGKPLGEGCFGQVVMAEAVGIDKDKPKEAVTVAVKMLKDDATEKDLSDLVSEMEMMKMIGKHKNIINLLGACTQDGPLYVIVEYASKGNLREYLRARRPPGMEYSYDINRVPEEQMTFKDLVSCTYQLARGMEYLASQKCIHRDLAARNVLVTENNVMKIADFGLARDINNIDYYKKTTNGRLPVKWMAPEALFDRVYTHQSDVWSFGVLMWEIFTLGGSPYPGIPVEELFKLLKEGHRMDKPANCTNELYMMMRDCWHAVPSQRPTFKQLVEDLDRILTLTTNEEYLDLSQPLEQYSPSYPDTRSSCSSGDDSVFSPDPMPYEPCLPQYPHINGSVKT

SMILES	IC50 (JAK3) [µM]	IC50 (FGFR2) [µM]
C=CC(=O)Nc1cccc(-c2cccc3cnc(Nc4ccc(N5CCN(C)CC5)cc4F)nc23)c1 [Example C044, N-(3-(2-((2-fluoro-4-(4-methylpiperazin-1-yl)phenyl)amino)quinazolin-8-yl)phenyl)acrylamide]	< 0.1	
C=CC(=O)Nc1cccc(-c2cccc3cnc(Nc4ccc(N5CCN(CCO)CC5)cc4)nc23)c1 [Example C059, N-(3-(2-((4-(4-(2-hydroxyethyl)piperazin-1-yl)phenyl)amino)quinazolin-8-yl)phenyl)acrylamide]	< 0.1	
C=CC(=O)Nc1cccc(-c2cccc3cnc(Nc4ccc(N5CCN(C)CC5)cc4)nc23)c1 [Example C021, N-(3-(2-((4-(4-methylpiperazin-1-yl)phenyl)amino)quinazolin-8-yl)phenyl)acrylamide]	< 0.1	< 0.1
C=CC(=O)Nc1cccc(-c2cccc3cnc(Nc4ccc(N5CCN(C)CC5)nc4)nc23)c1 [Example C041, N-(3-(2-((6-(4-methylpiperazin-1-yl)pyridin-3-yl)amino)quinazolin-8-yl)phenyl)acrylamide]	< 0.1	
